Our source for the IC50 and Ki values is ChEMBL document CHEMBL1909046, “DrugMatrix in vitro pharmacology data”.

A short description of data set [1]: DRUGMATRIX: ATPase, Na+/K+ enzyme inhibition (substrate: ATP). It counts as tissue-based, Sus scrofa, Heart. Conditions: Not Active = under 50% inhibition at 10 µM.
In a further data set the target is Carbonic anhydrase 2 (Homo sapiens, UniProt P00918). The experiment in a line: DRUGMATRIX: Carbonic Anhydrase II enzyme inhibition (substrate: 4-Nitrophenyl acetate (4-NPA)). Conditions: erythrocyte; Not Active = under 50% inhibition at 10 µM. It counts as tissue-based, Erythrocyte.
The target of data set [2] is T1, Polyunsaturated fatty acid lipoxygenase ALOX15 (Oryctolagus cuniculus, UniProt P12530).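 Note: inhibition of 15-lipoxygenase enzyme activity measured with linoleic acid as the substrate; in other assays of this panel Not Active means under 50% inhibition at 10 µM.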
T1 sequence (P12530 whole entry): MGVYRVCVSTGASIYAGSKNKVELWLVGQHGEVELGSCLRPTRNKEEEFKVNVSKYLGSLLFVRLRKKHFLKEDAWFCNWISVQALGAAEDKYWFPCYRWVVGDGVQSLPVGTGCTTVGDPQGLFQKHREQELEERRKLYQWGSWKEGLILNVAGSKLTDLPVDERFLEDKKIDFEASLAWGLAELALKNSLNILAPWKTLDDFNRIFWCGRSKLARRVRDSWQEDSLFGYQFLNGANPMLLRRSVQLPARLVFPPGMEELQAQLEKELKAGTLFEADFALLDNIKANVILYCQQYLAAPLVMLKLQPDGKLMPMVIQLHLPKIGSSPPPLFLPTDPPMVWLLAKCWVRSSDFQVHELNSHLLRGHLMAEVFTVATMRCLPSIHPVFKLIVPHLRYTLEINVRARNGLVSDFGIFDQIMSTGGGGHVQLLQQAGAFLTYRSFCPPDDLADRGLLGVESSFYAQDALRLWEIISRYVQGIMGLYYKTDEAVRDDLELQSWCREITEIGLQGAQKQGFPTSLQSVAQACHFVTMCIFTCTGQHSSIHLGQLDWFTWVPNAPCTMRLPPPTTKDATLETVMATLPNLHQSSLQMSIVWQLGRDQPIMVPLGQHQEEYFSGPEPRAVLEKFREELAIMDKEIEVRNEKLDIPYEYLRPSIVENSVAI
As to the kind of experiment: biochemical. It counts as tissue-based, Reticulocytes.

For data set [3], the target named is Kappa-type opioid receptor (Homo sapiens, UniProt P41145). The experiment in a line: DRUGMATRIX: Opiate kappa (OP2, KOP) radioligand binding (ligand: [3H] Diprenorphine). It counts as cell membranes, HEK293, Membrane. Particulars: hek293; Not Active = under 50% inhibition at 10 µM.
The next data set has as its target T2, Caspase-1 (Homo sapiens, UniProt P29466).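 Note: Caspase-1 enzyme inhibition assay with a peptide substrate; in other assays of this panel Not Active means under 50% inhibition at 10 µM.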
T2 sequence (P29466 whole entry): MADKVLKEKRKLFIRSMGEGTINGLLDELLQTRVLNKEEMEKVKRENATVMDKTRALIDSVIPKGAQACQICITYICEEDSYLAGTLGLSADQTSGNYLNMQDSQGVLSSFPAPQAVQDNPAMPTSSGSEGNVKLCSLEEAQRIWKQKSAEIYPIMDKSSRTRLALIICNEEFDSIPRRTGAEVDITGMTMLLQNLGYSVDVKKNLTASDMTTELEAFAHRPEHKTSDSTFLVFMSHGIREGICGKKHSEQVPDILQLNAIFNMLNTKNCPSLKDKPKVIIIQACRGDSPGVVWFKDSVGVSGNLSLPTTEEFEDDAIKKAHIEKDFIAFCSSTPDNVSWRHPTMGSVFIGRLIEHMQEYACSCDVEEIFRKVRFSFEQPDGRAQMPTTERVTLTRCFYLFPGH
The arrangement: species or system Escherichia coli.

Data set [4] concerns the target Tyrosine-protein kinase Fyn (Homo sapiens, UniProt P06241). As to the kind of experiment: biochemical. It counts as cell-based, Insect cells.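 Note: enzymatic inhibition of Fyn kinase activity measured with Poly(Glu:Tyr) as the phosphorylation substrate; in other assays of this panel Not Active means under 50% inhibition at 10 µM.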
For a further data set, the target named is T3, Cytochrome P450 2A6 (Homo sapiens, UniProt P11509). Note: in other assays of this panel Not Active means under 50% inhibition at 10 µM.
T3 sequence (P11509 whole entry): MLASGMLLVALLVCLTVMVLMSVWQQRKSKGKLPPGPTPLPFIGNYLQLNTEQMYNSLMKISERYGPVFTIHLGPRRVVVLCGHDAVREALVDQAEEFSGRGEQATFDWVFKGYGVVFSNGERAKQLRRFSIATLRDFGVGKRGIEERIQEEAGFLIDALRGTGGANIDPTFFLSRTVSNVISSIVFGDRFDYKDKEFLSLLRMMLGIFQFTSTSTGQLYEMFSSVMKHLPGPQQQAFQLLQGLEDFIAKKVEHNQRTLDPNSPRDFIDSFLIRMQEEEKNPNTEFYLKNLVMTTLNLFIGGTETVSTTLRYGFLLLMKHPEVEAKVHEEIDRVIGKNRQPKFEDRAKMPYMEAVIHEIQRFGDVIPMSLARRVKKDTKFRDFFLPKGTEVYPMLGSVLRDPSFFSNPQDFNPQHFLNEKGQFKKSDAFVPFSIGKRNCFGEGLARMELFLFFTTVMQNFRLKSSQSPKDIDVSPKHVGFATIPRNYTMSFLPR
Conditions: bti-tn-5b1-4.

Sequence of Kappa-type opioid receptor (P41145 whole entry): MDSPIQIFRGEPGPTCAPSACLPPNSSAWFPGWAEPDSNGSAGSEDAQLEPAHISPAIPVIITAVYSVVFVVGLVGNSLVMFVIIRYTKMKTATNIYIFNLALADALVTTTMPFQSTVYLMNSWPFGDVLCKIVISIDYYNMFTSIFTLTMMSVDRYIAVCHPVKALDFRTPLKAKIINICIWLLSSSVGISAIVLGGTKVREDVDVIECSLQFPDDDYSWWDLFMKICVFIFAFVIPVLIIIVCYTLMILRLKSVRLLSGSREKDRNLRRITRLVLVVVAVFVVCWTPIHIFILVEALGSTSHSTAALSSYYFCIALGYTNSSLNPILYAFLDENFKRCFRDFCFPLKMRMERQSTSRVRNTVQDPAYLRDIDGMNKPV
Sequence of Tyrosine-protein kinase Fyn (P06241 whole entry): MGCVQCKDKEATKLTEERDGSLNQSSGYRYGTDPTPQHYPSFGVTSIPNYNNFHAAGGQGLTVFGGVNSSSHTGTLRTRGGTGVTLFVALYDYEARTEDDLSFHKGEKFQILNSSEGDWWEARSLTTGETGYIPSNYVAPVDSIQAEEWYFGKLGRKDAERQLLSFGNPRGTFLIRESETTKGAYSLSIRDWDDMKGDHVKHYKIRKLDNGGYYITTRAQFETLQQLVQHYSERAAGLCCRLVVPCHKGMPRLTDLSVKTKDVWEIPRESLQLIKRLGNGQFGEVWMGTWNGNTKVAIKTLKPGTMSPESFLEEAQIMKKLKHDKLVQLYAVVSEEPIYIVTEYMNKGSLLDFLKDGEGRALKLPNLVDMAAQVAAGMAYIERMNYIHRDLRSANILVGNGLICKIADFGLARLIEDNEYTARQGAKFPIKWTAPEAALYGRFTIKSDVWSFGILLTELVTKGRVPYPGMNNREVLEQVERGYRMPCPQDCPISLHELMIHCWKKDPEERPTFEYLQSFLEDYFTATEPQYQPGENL

For orientation: IC50 means the concentration that gives 50% inhibition. In the case of `COc1cc2c3cc1Oc1cc(ccc1O)C[C@@H]1c4c(cc(OC)c(O)c4Oc4ccc(cc4)C[C@@H]3N(C)CC2)CC[N+]1(C)C.[Cl-]`, the IC50 entry (in data set [1]; on Carbonic anhydrase 2; in data set [2] (reticulocytes); in data set [3]; on Caspase-1; in data set [4] (insect cells)) was “Not Active” throughout. Moreover, the IC50 entry against Cytochrome P450 2A6 is on record as “Not Active”. For the same compound, the Ki entry (in data set [1]; at Cytochrome P450 2A6) was “Not Active” each time.
As to `O=C1CC[C@@H](N2C(=O)c3ccccc3C2=O)C(=O)N1`, the IC50 result (in data set [1]; on Carbonic anhydrase 2; in data set [2] (reticulocytes); in data set [3]; against Caspase-1; in data set [4] (insect cells)) was “Not Active” throughout. The concentration for half-maximal inhibition (IC50) result against Cytochrome P450 2A6 is “Not Active”. Also, the Ki entry (in data set [1]; at Cytochrome P450 2A6) was “Not Active” in each case.
Regarding `CN(C)c1nc(N(C)C)nc(N(C)C)n1` [ALTRETAMINE], the IC50 entry (in data set [1]; at Carbonic anhydrase 2; in data set [2] (reticulocytes); in data set [3]; at Caspase-1; in data set [4] (insect cells)) was “Not Active” throughout. Also, in data set [1], the Ki entry is “Not Active”.
For the compound `CNCCc1ccccn1` [BETAHISTINE], the IC50 result (in data set [1]; against Carbonic anhydrase 2; in data set [2] (reticulocytes); in data set [3]; at Caspase-1; in data set [4] (insect cells)) was “Not Active” each time. Besides, the IC50 result at Cytochrome P450 2A6 was “Not Active”. In addition, the Ki entry (in data set [1]; on Cytochrome P450 2A6) was “Not Active” in each case.
For `CCCC1O[C@@H]2C[C@H]3[C@@H]4CCC5=CC(=O)C=C[C@]5(C)[C@H]4[C@@H](O)C[C@]3(C)[C@]2(C(=O)CO)O1` (some centres not stated) [BUDESONIDE], the IC50 result (in data set [1]; against Carbonic anhydrase 2; in data set [2] (reticulocytes); in data set [3]; against Caspase-1; in data set [4] (insect cells)) was “Not Active” in each case. The IC50 result at Cytochrome P450 2A6 is “Not Active”. Also, the Ki result (in data set [1]; at Cytochrome P450 2A6) was “Not Active” each time.
In the case of `CC(NC(C)(C)C)C(=O)c1cccc(Cl)c1` (configuration not stated) [BUPROPION], the IC50 entry (in data set [1]; against Carbonic anhydrase 2; in data set [2] (reticulocytes); in data set [3]; on Caspase-1; in data set [4] (insect cells)) was “Not Active” in each case. On Cytochrome P450 2A6, the IC50 result is “Not Active”. In addition, the Ki entry (in data set [1]; on Cytochrome P450 2A6) was “Not Active” each time.
For `C[C@H](CS)C(=O)N1CCC[C@H]1C(=O)O` [CAPTOPRIL], the IC50 result (in data set [1]; against Carbonic anhydrase 2; in data set [2] (reticulocytes); in data set [3]; on Caspase-1; in data set [4] (insect cells)) was “Not Active” in each case. In addition, the IC50 result against Cytochrome P450 2A6 is recorded as “Not Active”. Besides, the Ki entry (in data set [1]; on Cytochrome P450 2A6) was “Not Active” each time.
Take `CN(C)CCCN1c2ccccc2Sc2ccc(Cl)cc21` [CHLORPROMAZINE]: the IC50 result in data set [1] was “Not Active”; against Carbonic anhydrase 2 it was “Not Active”; in data set [2] (read-out: IC50), 16 µM; against Caspase-1, “Not Active”; in data set [4] (read-out: IC50), 8.68 µM; on Cytochrome P450 2A6 it was “Not Active”. Moreover, the Ki entry (in data set [1]; on Cytochrome P450 2A6) was “Not Active” throughout.
For `CC(C)(C)NCC(O)c1cc(Cl)c(N)c(Cl)c1` (configuration not stated) [CLENBUTEROL], the IC50 entry (in data set [1]; against Carbonic anhydrase 2; in data set [2] (reticulocytes); against Caspase-1; in data set [4] (insect cells); at Cytochrome P450 2A6) was “Not Active” throughout. For the same compound, the Ki entry (in data set [1]; on Cytochrome P450 2A6) was “Not Active” in each case.
As for `CC(C)(Oc1ccc(Cl)cc1)C(=O)O` [CLOFIBRIC ACID], the IC50 result (in data set [1]; against Carbonic anhydrase 2; in data set [2] (reticulocytes); in data set [3]; on Caspase-1; in data set [4] (insect cells)) was “Not Active” throughout. The IC50 result on Cytochrome P450 2A6 was “Not Active”. In addition, the Ki entry (in data set [1]; at Cytochrome P450 2A6) was “Not Active” throughout.
Take `Clc1cccc(Cl)c1NC1=NCCN1` [CLONIDINE]: the IC50 result (in data set [1]; against Carbonic anhydrase 2; in data set [2] (reticulocytes); in data set [3]; on Caspase-1; in data set [4] (insect cells)) was “Not Active” each time. Moreover, on Cytochrome P450 2A6, the concentration for half-maximal inhibition (IC50) result was “Not Active”. For the same compound, the Ki result (in data set [1]; on Cytochrome P450 2A6) was “Not Active” in each case.
For `O=c1oc2ccccc2c(O)c1Cc1c(O)c2ccccc2oc1=O` [DICUMAROL], the IC50 entry (in data set [1]; against Carbonic anhydrase 2; in data set [2] (reticulocytes); in data set [3]; against Caspase-1; in data set [4] (insect cells)) was “Not Active” throughout. For the same compound, the IC50 entry at Cytochrome P450 2A6 is listed as “Not Active”. Further, the Ki result (in data set [1]; on Cytochrome P450 2A6) was “Not Active” each time.
Consider `C[C@H]1O[C@@H](O[C@H]2[C@@H](O)C[C@H](O[C@H]3[C@@H](O)C[C@H](O[C@H]4CC[C@@]5(C)[C@H](CC[C@@H]6[C@@H]5C[C@@H](O)[C@]5(C)[C@@H](C7=CC(=O)OC7)CC[C@]65O)C4)O[C@@H]3C)O[C@@H]2C)C[C@H](O)[C@@H]1O` [DIGOXIN], for which the IC50 in data set [1] (read-out: IC50) is 1650 nM; on Carbonic anhydrase 2, “Not Active”; in data set [2] (reticulocytes), “Not Active”; in data set [3] it was “Not Active”; against Caspase-1, “Not Active”; in data set [4] (insect cells) it was “Not Active”. Also, at Cytochrome P450 2A6, the IC50 result was “Not Active”. Moreover, the Ki result on Cytochrome P450 2A6 is “Not Active”.
On to `CC(=O)O[C@@]12CO[C@@H]1C[C@H](O)[C@@]1(C)C(=O)[C@H](O)C3=C(C)[C@@H](OC(=O)[C@H](O)[C@@H](NC(=O)OC(C)(C)C)c4ccccc4)C[C@@](O)([C@@H](OC(=O)c4ccccc4)[C@H]21)C3(C)C.O.O.O` [DOCETAXEL], for which the IC50 entry (in data set [1]; on Carbonic anhydrase 2; in data set [2] (reticulocytes); in data set [3]; against Caspase-1; in data set [4] (insect cells)) was “Not Active” in each case. Besides, the IC50 result against Cytochrome P450 2A6 was “Not Active”. For the same compound, the Ki result (in data set [1]; at Cytochrome P450 2A6) was “Not Active” in each case.
Take `COc1cc2nc(N3CCN(C(=O)C4COc5ccccc5O4)CC3)nc(N)c2cc1OC` (configuration not stated) [DOXAZOSIN]: the IC50 result (in data set [1]; at Carbonic anhydrase 2; in data set [2] (reticulocytes); in data set [3]; on Caspase-1; in data set [4] (insect cells)) was “Not Active” throughout. At Cytochrome P450 2A6, the IC50 result is given as “Not Active”. In addition, the Ki result (in data set [1]; on Cytochrome P450 2A6) was “Not Active” each time.
For the compound `C[C@]12CC[C@@H]3c4ccc(O)cc4CC[C@H]3[C@@H]1CCC2=O` [ESTRONE], the IC50 result in data set [1] is “Not Active”; against Carbonic anhydrase 2 it was “Not Active”; in data set [2] (read-out: IC50), 6.59 µM; in data set [3], “Not Active”; on Caspase-1 it was “Not Active”; in data set [4] (insect cells), “Not Active”. Also, the Ki entry in data set [1] is given as “Not Active”.
